Activity calls are given as the source filed them.
Legend:
[1] = tested on: Rattus norvegicus; experiment: Anticonvulsant activity in Sprague-Dawley rat assessed as protection against maximal electroshock-induced seizures at 30 mg/kg, ip measured after 4 hrs; format: functional, organism-based; design: dose 30 mg/kg
[2] = tested on: Rattus norvegicus; experiment: Neurotoxicity in MES Sprague-Dawley rat model at 30 mg/kg, po measured after 4 hrs; format: toxicity, organism-based; design: dose 30 mg/kg, route oral; details: in vivo
[3] = tested on: Mus musculus; experiment: Neurotoxicity in albino CF1 mouse at 100 mg/kg, ip measured after 4 hrs; format: toxicity, organism-based; design: dose 100 mg/kg, route intraperitoneal; details: in vivo
[4] = tested on: Rattus norvegicus; experiment: Anticonvulsant activity in Sprague-Dawley rat assessed as protection against maximal electroshock-induced seizures at 30 mg/kg, ip measured after 2 hrs; format: functional, organism-based; design: dose 30 mg/kg
[5] = tested on: Rattus norvegicus; experiment: Neurotoxicity in MES Sprague-Dawley rat model at 30 mg/kg, ip measured after 0.25 hr; format: toxicity, organism-based; design: dose 30 mg/kg, route intraperitoneal; details: in vivo
[6] = tested on: Mus musculus; experiment: Anticonvulsant activity in albino CF1 mouse assessed as protection against 32 mA current-induced seizures at 100 mg/kg, ip measured after 2 hrs; format: functional, organism-based; design: dose 100 mg/kg
[7] = tested on: Rattus norvegicus; experiment: Neurotoxicity in MES Sprague-Dawley rat model at 30 mg/kg, po measured after 0.25 hr; format: toxicity, organism-based; design: dose 30 mg/kg, route oral; details: in vivo
[8] = tested on: Mus musculus; experiment: Anticonvulsant activity in albino CF1 mouse assessed as protection against 32 mA current-induced seizures at 100 mg/kg, ip measured after 0.5 hr; format: functional, organism-based; design: dose 100 mg/kg
[9] = tested on: Rattus norvegicus; experiment: Neurotoxicity in MES Sprague-Dawley rat model at 30 mg/kg, ip measured after 0.5 hr; format: toxicity, organism-based; design: dose 30 mg/kg, route intraperitoneal; details: in vivo
[10] = tested on: Mus musculus; experiment: Anticonvulsant activity in albino CF1 mouse assessed as protection against maximal electroshock-induced seizures at 100 mg/kg, ip measured after 0.5 hr; format: functional, organism-based; design: dose 100 mg/kg
[11] = tested on: Rattus norvegicus; experiment: Anticonvulsant activity in Sprague-Dawley rat assessed as protection against maximal electroshock-induced seizures at 30 mg/kg, po measured after 1 hr; format: functional, organism-based; design: dose 30 mg/kg
[12] = tested on: Rattus norvegicus; experiment: Anticonvulsant activity in Sprague-Dawley rat assessed as protection against maximal electroshock-induced seizures at 30 mg/kg, po measured after 0.5 hr; format: functional, organism-based; design: dose 30 mg/kg
[13] = tested on: Rattus norvegicus; experiment: Neurotoxicity in MES Sprague-Dawley rat model at 30 mg/kg, po measured after 0.5 hr; format: toxicity, organism-based; design: dose 30 mg/kg, route oral; details: in vivo
[14] = tested on: Rattus norvegicus; experiment: Anticonvulsant activity in Sprague-Dawley rat assessed as protection against maximal electroshock-induced seizures at 30 mg/kg, ip measured after 0.25 hr; format: functional, organism-based; design: dose 30 mg/kg
[15] = tested on: Mus musculus; experiment: Neurotoxicity in 32 mA current-induced seizure albino CF1 mouse model at 100 mg/kg, ip measured after 0.5 hr; format: toxicity, organism-based; design: dose 100 mg/kg, route intraperitoneal; details: in vivo
[16] = tested on: Rattus norvegicus; experiment: Neurotoxicity in MES Sprague-Dawley rat model at 30 mg/kg, po measured after 2 hrs; format: toxicity, organism-based; design: dose 30 mg/kg, route oral; details: in vivo
[17] = tested on: Rattus norvegicus; experiment: Neurotoxicity in MES Sprague-Dawley rat model at 30 mg/kg, ip measured after 2 hrs; format: toxicity, organism-based; design: dose 30 mg/kg, route intraperitoneal; details: in vivo
[18] = tested on: Rattus norvegicus; experiment: Anticonvulsant activity in Sprague-Dawley rat assessed as protection against maximal electroshock-induced seizures at 30 mg/kg, po measured after 2 hrs; format: functional, organism-based; design: dose 30 mg/kg
[19] = tested on: Rattus norvegicus; experiment: Anticonvulsant activity in Sprague-Dawley rat assessed as protection against maximal electroshock-induced seizures at 30 mg/kg, ip measured after 0.5 hr; format: functional, organism-based; design: dose 30 mg/kg
[20] = tested on: Mus musculus; experiment: Anticonvulsant activity in albino CF1 mouse assessed as protection against maximal electroshock-induced seizures at 100 mg/kg, ip measured after 4 hrs; format: functional, organism-based; design: dose 100 mg/kg
[21] = tested on: Mus musculus; experiment: Neurotoxicity in 32 mA current-induced seizure albino CF1 mouse model at 100 mg/kg, ip measured after 2 hrs; format: toxicity, organism-based; design: dose 100 mg/kg, route intraperitoneal; details: in vivo
[22] = tested on: Rattus norvegicus; experiment: Anticonvulsant activity in Sprague-Dawley rat assessed as protection against maximal electroshock-induced seizures at 30 mg/kg, po measured after 0.25 hr; format: functional, organism-based; design: dose 30 mg/kg
[23] = tested on: Rattus norvegicus; experiment: Neurotoxicity in MES Sprague-Dawley rat model at 30 mg/kg, po measured after 1 hr; format: toxicity, organism-based; design: dose 30 mg/kg, route oral; details: in vivo
[24] = tested on: Rattus norvegicus; experiment: Anticonvulsant activity in Sprague-Dawley rat assessed as protection against maximal electroshock-induced seizures at 30 mg/kg, ip measured after 1 hr; format: functional, organism-based; design: dose 30 mg/kg
[25] = tested on: Mus musculus; experiment: Neurotoxicity in albino CF1 mouse at 100 mg/kg, ip measured after 0.5 hr; format: toxicity, organism-based; design: dose 100 mg/kg, route intraperitoneal; details: in vivo
[26] = tested on: Rattus norvegicus; experiment: Neurotoxicity in MES Sprague-Dawley rat model at 30 mg/kg, ip measured after 4 hrs; format: toxicity, organism-based; design: dose 30 mg/kg, route intraperitoneal; details: in vivo
[27] = tested on: Rattus norvegicus; experiment: Neurotoxicity in MES Sprague-Dawley rat model at 30 mg/kg, ip measured after 1 hr; format: toxicity, organism-based; design: dose 30 mg/kg, route intraperitoneal; details: in vivo
[28] = tested on: Rattus norvegicus; experiment: Anticonvulsant activity in Sprague-Dawley rat assessed as protection against maximal electroshock-induced seizures at 30 mg/kg, po measured after 4 hrs; format: functional, organism-based; design: dose 30 mg/kg
[29] = tested on: Mus musculus; experiment: Anticonvulsant activity in albino CF1 mouse assessed as protection against 32 mA current-induced seizures at 100 mg/kg, ip measured after 4 hrs; format: functional, organism-based; design: dose 100 mg/kg
[30] = tested on: Mus musculus; experiment: Anticonvulsant activity in albino CF1 mouse assessed as protection against maximal electroshock-induced seizures at 100 mg/kg, ip measured after 0.25 hr; format: functional, organism-based; design: dose 100 mg/kg
[31] = tested on: Mus musculus; experiment: Anticonvulsant activity in albino CF1 mouse assessed as protection against subcutaneous metrazol-induced seizures at 100 mg/kg, ip measured after 1 hr; format: functional, organism-based; design: dose 100 mg/kg
[32] = tested on: Mus musculus; experiment: Anticonvulsant activity in albino CF1 mouse assessed as protection against 32 mA current-induced seizures at 100 mg/kg, ip measured after 0.25 hr; format: functional, organism-based; design: dose 100 mg/kg
[33] = tested on: Mus musculus; experiment: Neurotoxicity in albino CF1 mouse at 100 mg/kg, ip measured after 0.25 hr; format: toxicity, organism-based; design: dose 100 mg/kg, route intraperitoneal; details: in vivo
[34] = tested on: Mus musculus; experiment: Neurotoxicity in 32 mA current-induced seizure albino CF1 mouse model at 100 mg/kg, ip measured after 0.25 hr; format: toxicity, organism-based; design: dose 100 mg/kg, route intraperitoneal; details: in vivo
[35] = tested on: Mus musculus; experiment: Neurotoxicity in 32 mA current-induced seizure albino CF1 mouse model at 100 mg/kg, ip measured after 1 hr; format: toxicity, organism-based; design: dose 100 mg/kg, route intraperitoneal; details: in vivo
[36] = tested on: Mus musculus; experiment: Neurotoxicity in albino CF1 mouse at 100 mg/kg, ip measured after 1 hr; format: toxicity, organism-based; design: dose 100 mg/kg, route intraperitoneal; details: in vivo
[37] = tested on: Mus musculus; experiment: Neurotoxicity in 32 mA current-induced seizure albino CF1 mouse model at 100 mg/kg, ip measured after 4 hrs; format: toxicity, organism-based; design: dose 100 mg/kg, route intraperitoneal; details: in vivo
[38] = tested on: Mus musculus; experiment: Anticonvulsant activity in albino CF1 mouse assessed as protection against subcutaneous metrazol-induced seizures at 100 mg/kg, ip measured after 0.25 hr; format: functional, organism-based; design: dose 100 mg/kg
[39] = tested on: Mus musculus; experiment: Anticonvulsant activity in albino CF1 mouse assessed as protection against 32 mA current-induced seizures at 100 mg/kg, ip measured after 1 hr; format: functional, organism-based; design: dose 100 mg/kg
[40] = tested on: Mus musculus; experiment: Anticonvulsant activity in albino CF1 mouse assessed as protection against subcutaneous metrazol-induced seizures at 100 mg/kg, ip measured after 4 hrs; format: functional, organism-based; design: dose 100 mg/kg
[41] = tested on: Mus musculus; experiment: Anticonvulsant activity in albino CF1 mouse assessed as protection against maximal electroshock-induced seizures at 100 mg/kg, ip measured after 1 hr; format: functional, organism-based; design: dose 100 mg/kg
[42] = tested on: Mus musculus; experiment: Anticonvulsant activity in albino CF1 mouse assessed as protection against subcutaneous metrazol-induced seizures at 100 mg/kg, ip measured after 0.5 hr; format: functional, organism-based; design: dose 100 mg/kg

Measured: Activity

Cl.O=C1NC(=O)[C@@H]2C[C@@H](O)CN2C1c1cccc(C(F)(F)F)c1 (mixture of isomers)
Toxic: [15] | [25]
inactive: [1] | [4] | [6] | [11] | [12] | [14] | [18] | [19] | [20] | [22] | [24] | [28]
active: [8] | [10]
Non-toxic: [2] | [3] | [5] | [7] | [9] | [13] | [16] | [17] | [21] | [23] | [26] | [27]

O=C1NC(=O)[C@@H]2CCCN2[C@H]1c1cccc(F)c1
inactive: [29] | [6] | [11] | [31] | [12] | [18] | [20] | [22] | [39] | [40] | [41] | [28]
active: [8] | [10] | [30] | [32] | [38] | [42]
not listed: [1] | [4] | [5] | [9] | [14] | [17] | [19] | [24] | [26] | [27]
Non-toxic: all other assays above

O=C1NC(=O)[C@@H]2CCCCN2[C@H]1c1cccc(C(F)(F)F)c1
Non-toxic: [3] | [5] | [9] | [33] | [15] | [34] | [35] | [36] | [17] | [37] | [21] | [25] | [26] | [27]
active: [8] | [32]
not listed: [2] | [7] | [11] | [12] | [13] | [16] | [18] | [22] | [23] | [28]
inactive: all other assays above

O=C1NC(=O)[C@@H]2CCCN2[C@H]1c1ccc(C(F)(F)F)cc1
inactive: [1] | [29] | [4] | [6] | [10] | [31] | [32] | [14] | [19] | [20] | [24] | [39] | [40]
active: [8] | [30] | [38] | [41] | [42]
not listed: [2] | [7] | [11] | [12] | [13] | [16] | [18] | [22] | [23] | [28]
Non-toxic: all other assays above
